{
  "source": "paper PMC9961652",
  "about": "(International Journal of Molecular Sciences, 2023)",
  "key": {"washed human platelets [1]": {"tested_on": "washed human platelets", "assay": "Lactate dehydrogenase (LDH) leakage cytotoxicity assay", "assay_type": "cell-based", "settings": "50 µM; compared with positive control Triton X-100", "method": "The cytotoxicity of the active analogs was determined with the lactate dehydrogenase (LDH) leakage assay to ensure that platelet inhibition was a consequence of pharmacologic inhibition and not cytotoxicity. LDH is a stable cytosolic marker for membrane perturbation and is present in many cell types, including platelets.\nCompound cytotoxicity was assessed using LDH Cytotoxicity Assay Kit (No. 601170; Cayman Chemical, MI) as previously described. Washed human platelets (2.5 × 10^8/mL) were incubated at 37 °C for 10 min with the highest concentration of compounds (50 µM for R-G04 and S-G04, and 20 µM for Rhosin analogs) or the vehicle, dimethyl sulfoxide (DMSO) 0.1% or 10% Triton X-100, which served as the positive control. The platelets were centrifuged at 800× g for 8 min at 4 °C, and 100 µL of the supernatant was mixed with 100 µL of LDH reaction solution in a 96-well plate. The plate was incubated at 37 °C for 10 min under constant orbital shaking before measurement of the absorbance at 490 nm in a plate reader (BioTek Synergy LX multimode reader; Santa Clara, CA, USA)."}, "washed human platelets [2]": {"tested_on": "washed human platelets", "assay": "Wash-out reversibility of inhibition of collagen-induced platelet aggregation", "assay_type": "cell-based", "method": "The reversible inhibition of Rhosin in collagen-induced platelet aggregation was assessed with similar wash-out experiments, and this reversible nature of Rhosin makes it a valuable antiplatelet drug candidate (Supporting Information Figure S4A,B). After confirming the structures of the above six active analogs, similar wash-out experiments were performed to compare the reversible function of the active analogs with Rhosin reversibility."}, "RhoA [3]": {"tested_on": "RhoA", "assay": "RhoA-GTP formation, GST-Rhotekin effector pull-down assay in collagen-stimulated platelets", "assay_type": "cell-based, human", "settings": "R-G04 10 µM or 50 µM, S-G04 3 µM or 20 µM; collagen 1 µg/mL", "method": "Next, the ability of the six compounds to suppress RhoA activity in platelets was assessed by subjecting them to a GST (Glutathione-S-transferase)-Rhotekin effector pull-down assay. The compounds were incubated with washed human platelets for 2 min before being stimulated with 1 µg/mL collagen. The analogs inhibited the activation of RhoA at the 20 µM concentration (Figure 2A,B). […] After confirming that these analogs could prevent RhoA activation and the phosphorylation of the MLC, their ability to disrupt complex-formation between RhoA and LARG was tested. […] These findings indicate that the active analogs inhibit RhoA activation by disrupting the binding between RhoA and its GEF.\n(A,B) Washed human platelets were incubated with collagen (1 µg/mL) for 4 min, and the levels of RhoA-GTP formation were quantified with a GST-Rhotekin effector pull-down assay. The platelets were pre-incubated with 20 µM UC-177618, UC-177619, UC-177628, UC-177629, […], or […] for 2 min before being stimulated with collagen. The addition of ice-cold lysis buffer terminated the reaction. […] Relative amounts of the GTP-bound form of RhoA were quantified with densitometry measurements of total RhoA (T-RhoA) and normalized to untreated platelets. (C,D) The addition of 20 µM of active Rhosin-related compounds to washed human platelets 2 min before stimulation with collagen blocked the phosphorylation of the myosin light chain (p-MLC). The reactions were terminated after 4 min by adding 4x Laemmli sample buffer. The samples were processed for Western blotting and probed for MLC and p-MLC, and phosphorylation was quantified by measuring the densitometry of total MLC (T-MLC). The differences between DMSO- and Rhosin-related compounds were analyzed with t-test, and the results are shown as means ± SDs of three independent experiments. (* p < 0.05, ** p < 0.01, *** p < 0.001, and **** p < 0.0001).\nThe relative levels of RhoA-GTP in washed human platelets were quantified with effector domains GST-Rhotekin pull-down assays as previously reported. A volume of 250 µL of washed human platelets (2.5 × 10^8/mL) was pre-warmed to 37 °C along with the compounds or DMSO (0.1%) for 2 min before being stimulated with collagen (1 µg/mL). The reactions were terminated 4 min after collagen stimulation by adding ice-cold lysis buffer (20 mM Tris·HCl (pH 7.6), 100 mM NaCl, 1% Triton X-100, 0.2% Sodium Deoxycholate, 10 mM MgCl2, 1 mM dithiothreitol, 1x protease inhibitor cocktail, and 1x phosphatase inhibitor cocktail). The supernatants were collected and subjected to the GST-Rhotekin pull-down assay. The total cell lysates were also blotted in parallel. GTP-bound RhoA was quantitatively detected with Western blotting using an anti-RhoA antibody. The relative amounts of RhoA were quantified with densitometry measurements and normalized to the untreated platelets."}, "[4]": {"assay": "Pharmacokinetic profile (unpublished data)"}, "RhoA [5]": {"tested_on": "RhoA", "set-up": "method as in PMID 22726684, PMID 22956131", "settings": "cited from earlier work"}, "RhoA, Rac1 and Cdc42": {"tested_on": "RhoA, Rac1 and Cdc42", "set-up": "method as in PMID 22726684, PMID 27681226", "settings": "cited from earlier work"}},
  "data": [
    {"smiles": "N[C@H](Cc1c[nH]c2ccccc12)C(=O)N/N=C/c1ccc2nccnc2c1", "note": "[R-G04]", "values": [
      {"measurement": "cytotoxicity, LDH assay", "setting": "washed human platelets [1]", "value": "neither R-G04 nor S-G04 induced significant human platelet cytolysis"},
      {"measurement": "reversibility of inhibitory effect after wash-out", "setting": "washed human platelets [2]", "value": "reversible"},
      {"measurement": "RhoA-GTP formation", "setting": "RhoA [3]", "value": "inhibited RhoA-GTP formation in a concentration-dependent manner"},
      {"measurement": "pharmacokinetic profile", "setting": "[4]", "value": "poor pharmacokinetic profile"},
      {"measurement": "affinity of binding to the Trp58 region of the RhoA surface", "setting": "RhoA [5]", "value": "micromolar affinity"},
      {"measurement": "specificity of inhibition of Rho GTPase activation", "setting": "RhoA, Rac1 and Cdc42", "value": "specifically inhibits the activation of RhoA but not that of Rac1 and Cdc42"}
    ]},
    {"smiles": "N[C@@H](Cc1c[nH]c2ccccc12)C(=O)N/N=C/c1ccc2nccnc2c1", "note": "[S-G04]", "values": [
      {"measurement": "cytotoxicity, LDH assay", "setting": "washed human platelets [1]", "value": "neither R-G04 nor S-G04 induced significant human platelet cytolysis"},
      {"measurement": "RhoA-GTP formation", "setting": "RhoA [3]", "value": "inhibited RhoA-GTP formation in a concentration-dependent manner"}
    ]}
  ]
}
